# Reference: US10947213B1 (Merck Patent GmbH, priority 2015, dated 2021)
# Target: T1, TLR7/NFKb HEK cells (Homo sapiens, UniProt Q9NYK1)
# T1 construct: expressed in transfected cells; host or cells: HEK cells (TLR7/NFKb reporter line)
# T1 sequence (Q9NYK1 27-1049): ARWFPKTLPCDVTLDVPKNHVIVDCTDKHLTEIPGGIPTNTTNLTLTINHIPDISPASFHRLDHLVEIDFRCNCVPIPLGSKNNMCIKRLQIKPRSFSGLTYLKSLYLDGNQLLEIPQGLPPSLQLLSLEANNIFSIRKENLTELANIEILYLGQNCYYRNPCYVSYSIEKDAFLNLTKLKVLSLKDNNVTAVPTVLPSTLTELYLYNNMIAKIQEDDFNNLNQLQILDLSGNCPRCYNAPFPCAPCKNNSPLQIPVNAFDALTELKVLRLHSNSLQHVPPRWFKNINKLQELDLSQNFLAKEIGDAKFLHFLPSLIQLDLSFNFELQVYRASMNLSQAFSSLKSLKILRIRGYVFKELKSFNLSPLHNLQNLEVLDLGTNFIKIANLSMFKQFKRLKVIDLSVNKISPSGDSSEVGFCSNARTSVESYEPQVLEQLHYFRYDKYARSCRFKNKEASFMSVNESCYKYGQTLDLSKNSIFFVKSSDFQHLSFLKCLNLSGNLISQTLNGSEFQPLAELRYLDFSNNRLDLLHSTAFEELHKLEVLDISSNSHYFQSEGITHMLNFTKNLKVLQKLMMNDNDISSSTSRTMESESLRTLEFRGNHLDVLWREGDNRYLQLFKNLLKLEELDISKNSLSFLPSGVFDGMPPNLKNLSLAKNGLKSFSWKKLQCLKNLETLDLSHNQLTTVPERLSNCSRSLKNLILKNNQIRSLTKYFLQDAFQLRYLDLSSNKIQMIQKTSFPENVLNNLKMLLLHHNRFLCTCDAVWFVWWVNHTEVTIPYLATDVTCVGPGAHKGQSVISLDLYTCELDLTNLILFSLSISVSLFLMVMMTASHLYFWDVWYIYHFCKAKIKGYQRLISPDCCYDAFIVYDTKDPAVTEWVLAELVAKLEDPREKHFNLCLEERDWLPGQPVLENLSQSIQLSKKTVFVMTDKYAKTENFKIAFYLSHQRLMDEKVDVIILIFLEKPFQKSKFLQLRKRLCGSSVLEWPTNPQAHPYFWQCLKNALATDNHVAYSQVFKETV
# Test: HEK Cell Assay (TLR7/NFKb reporter, Steady-Glo luciferase readout)
# Format: cell-based
# Settings: 30 min compound preincubation, then R*48 agonist for 5 hours, read-out: Potency
# Procedure, shortened: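 Steady-Glo luminescence after 5 h stimulation with R*48 agonist, following 30 min compound preincubation. Assay run in HEK cells carrying a TLR7/NFKb luciferase reporter, plated at 5000 cells/well and grown 24 h at 37° C (10% CO2) before treatment.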
row,IC50,Structure (SMILES)
1,< 1000 nM,"C[C@H]1C[C@@H](NC(=O)C(N)C(F)(F)F)CN(c2ccc(C(F)(F)F)c3ncccc23)C1 (single isomer, unassigned) [Compound 198]"
2,1000 to 10000 nM,"C[C@H]1C[C@@H](NC(=O)C(N)C(F)(F)F)CN(c2ccc(C(F)F)c3ncccc23)C1 (single isomer, unassigned) [Compound 207]"
3,< 1000 nM,"C[C@H]1C[C@@H](NC(=O)C(N)C(F)(F)F)CN(c2ccc(C(F)F)c3ncccc23)C1 (single isomer, unassigned) [Compound 208]"
4,1000 to 10000 nM,"CC1(C)C[C@@H](NC(=O)C(N)C(F)(F)F)CN(c2ccc(C#N)c3nccnc23)C1 (single isomer, unassigned) [Compound 211]"
5,1000 to 10000 nM,"CC1(C)C[C@@H](NC(=O)C(N)C(F)(F)F)CN(c2ccc(C#N)c3nccnc23)C1 (single isomer, unassigned) [Compound 212]"
6,1000 to 10000 nM,"CN1CCC(NC2CC(C(F)(F)F)CN(c3ccc(C#N)c4nccnc34)C2)C1=O (single isomer, unassigned) [Compound 224]"
7,1000 to 10000 nM,"CN1CCC(NC2CC(C(F)(F)F)CN(c3ccc(C#N)c4nccnc34)C2)C1=O (single isomer, unassigned) [Compound 225]"
8,< 1000 nM,"CN1CCC(NC2CC(C(F)(F)F)CN(c3ccc(C#N)c4nccnc34)C2)C1=O (single isomer, unassigned) [Compound 226]"
9,1000 to 10000 nM,"CN1CCC(NC2CC(C(F)(F)F)CN(c3ccc(C#N)c4nccnc34)C2)C1=O (single isomer, unassigned) [Compound 227]"
10,< 1000 nM,"C[C@H]1C[C@@H](NC2CCN(C)C2=O)CN(c2ccc(C(F)(F)F)c3ncccc23)C1 (single isomer, unassigned) [Compound 237]"
11,< 1000 nM,"C[C@H]1C[C@@H](NC2CCN(C)C2=O)CN(c2ccc(C(F)(F)F)c3ncccc23)C1 (single isomer, unassigned) [Compound 238]"
12,< 1000 nM,"C[C@H]1C[C@@H](NC2CCN(C)C2=O)CN(c2ccc(Cl)c3ncccc23)C1 (single isomer, unassigned) [Compound 260]"
13,< 1000 nM,"C[C@H]1C[C@@H](NC2CCN(C)C2=O)CN(c2ccc(Cl)c3ncccc23)C1 (single isomer, unassigned) [Compound 261]"
14,< 1000 nM,"CC1CC(N)CN(c2ccc(F)c3nccnc23)C1 (single isomer, unassigned) [Compound 339]"
15,1000 to 10000 nM,"CC1CC(N)CN(c2ccc(F)c3nccnc23)C1 (single isomer, unassigned) [Compound 340]"
16,> 10000 nM,"C[C@H]1C[C@@H](NC(=O)C(N)C(F)(F)F)CN(c2c(F)cc(C#N)c3nccnc23)C1 (single isomer, unassigned) [Compound 345]"
17,> 10000 nM,"C[C@H]1C[C@@H](NC(=O)C(N)C(F)(F)F)CN(c2c(F)cc(C#N)c3nccnc23)C1 (single isomer, unassigned) [Compound 346]"
18,< 1000 nM,"C[C@H]1C[C@@H](NC2CCN(C)C2=O)CN(c2ccc(C(F)(F)F)c3nccnc23)C1 (single isomer, unassigned) [Compound 352]"
19,< 1000 nM,"C[C@H]1C[C@@H](NC2CCN(C)C2=O)CN(c2ccc(C(F)(F)F)c3nccnc23)C1 (single isomer, unassigned) [Compound 353]"
20,< 1000 nM,"C[C@H]1C[C@@H](NC(=O)CC2C3CC2CN(C)C3)CN(c2ccc(C#N)c3nccnc23)C1 (single isomer, unassigned) [Compound 357]"
21,< 1000 nM,"C[C@H]1C[C@@H](NC(=O)CC2C3CC2CN(C)C3)CN(c2ccc(C#N)c3nccnc23)C1 (single isomer, unassigned) [Compound 358]"
22,< 1000 nM,"CC(C(=O)N[C@@H]1C[C@H](C)CN(c2ccc(C(F)(F)F)c3nccnc23)C1)N1CC(N)C1 (single isomer, unassigned) [Compound 369]"
23,< 1000 nM,"CC(C(=O)N[C@@H]1C[C@H](C)CN(c2ccc(C(F)(F)F)c3nccnc23)C1)N1CC(N)C1 (single isomer, unassigned) [Compound 370]"
24,< 1000 nM,"CC(C(=O)N[C@@H]1C[C@H](C)CN(c2ccc(C(F)(F)F)c3nccnc23)C1)N1CCC(O)CC1 (single isomer, unassigned) [Compound 371]"

row,IC50,Structure (SMILES)
1,< 1000 nM,"CC(C(=O)N[C@@H]1C[C@H](C)CN(c2ccc(C(F)(F)F)c3nccnc23)C1)N1CCC(O)CC1 (single isomer, unassigned) [Compound 372]"
2,> 10000 nM,"CC(C)[C@H](O)C(=O)NC1CC(C(F)(F)F)CN(c2ccc(C#N)c3ncccc23)C1 (single isomer, unassigned) [Compound 429]"
3,< 1000 nM,"CC(C)[C@H](O)C(=O)NC1CC(C(F)(F)F)CN(c2ccc(C#N)c3ncccc23)C1 (single isomer, unassigned) [Compound 430]"
4,1000 to 10000 nM,"CCN1CCC[C@H]1C(=O)NC1CC(C(F)(F)F)CN(c2ccc(C#N)c3ncccc23)C1 (single isomer, unassigned) [Compound 437]"
5,1000 to 10000 nM,"CCN1CCC[C@H]1C(=O)NC1CC(C(F)(F)F)CN(c2ccc(C#N)c3ncccc23)C1 (single isomer, unassigned) [Compound 438]"
6,< 1000 nM,"O=C(NC1CCN(CC2CC2)C1)C1CCN(c2ccc(C(F)(F)F)c3ncccc23)CC1 (single isomer, unassigned) [Compound 444]"
7,< 1000 nM,"O=C(NC1CCN(CC2CC2)C1)C1CCN(c2ccc(C(F)(F)F)c3ncccc23)CC1 (single isomer, unassigned) [Compound 445]"
8,< 1000 nM,"CN(C)CC(=O)NC1CN(c2ccc(C#N)c3ncccc23)CC(F)(F)C1 (single isomer, unassigned) [Compound 449]"
9,1000 to 10000 nM,"CN(C)CC(=O)NC1CN(c2ccc(C#N)c3ncccc23)CC(F)(F)C1 (single isomer, unassigned) [Compound 450]"
10,< 1000 nM,"N#Cc1ccc(N2CC(NC(=O)C(N)C3CC3)CC(C(F)(F)F)C2)c2cccnc12 (single isomer, unassigned) [Compound 487]"
11,> 10000 nM,"N#Cc1ccc(N2CC(NC(=O)CCC(=O)N3CCC3)CC(C(F)(F)F)C2)c2cccnc12 (single isomer, unassigned) [Compound 494]"
12,1000 to 10000 nM,"N#Cc1ccc(N2CC(NC(=O)CCC(=O)N3CCC3)CC(C(F)(F)F)C2)c2cccnc12 (single isomer, unassigned) [Compound 495]"
13,< 1000 nM,"N#Cc1ccc(N2CC(NC(=O)CC3(N)CCCCC3)CC(C(F)(F)F)C2)c2cccnc12 (single isomer, unassigned) [Compound 497]"
14,< 1000 nM,"N#Cc1ccc(N2CC(NC(=O)CC3(N)CCCCC3)CC(C(F)(F)F)C2)c2cccnc12 (single isomer, unassigned) [Compound 498]"
15,< 1000 nM,"CC(C(=O)NC1CN(c2ccc(C#N)c3nccnc23)CC(F)(F)C1)N1CCC1 (single isomer, unassigned) [Compound 507]"
16,1000 to 10000 nM,"CC(C(=O)NC1CN(c2ccc(C#N)c3nccnc23)CC(F)(F)C1)N1CCC1 (single isomer, unassigned) [Compound 508]"
17,< 1000 nM,"C[C@H]1C[C@@H](NC(=O)C(O)C2CC2)CN(c2ccc(C(F)(F)F)c3ncccc23)C1 (single isomer, unassigned) [Compound 520]"
18,< 1000 nM,"C[C@H]1C[C@@H](NC(=O)C(O)C2CC2)CN(c2ccc(C(F)(F)F)c3ncccc23)C1 (single isomer, unassigned) [Compound 521]"
19,< 1000 nM,"CN1CCC(CC(=O)NC2CN(c3ccc(C#N)c4nccnc34)CC(F)(F)C2)CC1 (single isomer, unassigned) [Compound 522]"
20,< 1000 nM,"CN1CCC(CC(=O)NC2CN(c3ccc(C#N)c4nccnc34)CC(F)(F)C2)CC1 (single isomer, unassigned) [Compound 523]"
21,< 1000 nM,"NC1CN(c2ccc(C(F)(F)F)c3ncccc23)CC(F)(F)C1 (single isomer, unassigned) [Compound 527]"
22,1000 to 10000 nM,"NC1CN(c2ccc(C(F)(F)F)c3ncccc23)CC(F)(F)C1 (single isomer, unassigned) [Compound 528]"
23,< 1000 nM,"CC1CC(CN2CCN(C)CC2)CN(c2ccc(C(F)(F)F)c3ncccc23)C1 (single isomer, unassigned) [Compound 533, cis-5-[3-Methyl-5-(4-methyl-piperazin-1-ylmethyl)-piperidin-1-yl]-8-trifluoromethyl-quinoline]"
